Results taken from US5981520A, “Piperazino derivatives as neurokinin antagonists” (Schering Corporation, priority 1998, dated 1999).

Tests used:
[1] = target: T1, human neurokinin 1 (NK1) receptor (Homo sapiens, UniProt P25103); assay: Neurokinin receptor binding assay, NK1 ([3H]-Substance P, CHO membranes); conditions: for Ki: racemic compounds except specifically defined enantiomers
T1 construct: expressed in transfected cells; host or cells: Chinese Hamster ovary (CHO) cells
Protocol: (§1) Chinese Hamster ovary (CHO) cells transfected with the coding regions for the human neurokinin 1 (NK1) of the human neurokinin 2 (NK2) receptors are grown in Dulbecco's minimal essential medium supplemented with 10% fetal calf serum, 0.1 mM non-essential amino acids, 2 mM glutamine, 100 units/ml of penicillin and streptomycin, and 0.8 mg of G418/ml at 37° C. in a humidified atmosphere containing 5% CO2.
(§2) Cells are harvested by centrifugation and washed in RPMI media at […] for 5 minutes. The pellet is resuspended inTris-HCl (pH7.4) containing 1 uM phosphoramidon and 4 ug/ml of chymostatin at a cell density of 30×10^6 cells/ml. The suspension is then homogenized in a Brinkman Polytron (setting 5) for 30-45 seconds. The homogenate is centrifuged at 800×g for 5 min at 4° C. to collect unbroken cells and nuclei. The supematant is centrifuged in a Sorvall RC5C at 19,000 rpm ([…]) for 30 min at 4° C. The pellet is resuspended, an aliquot is removed for a protein determination (BCA) and washed again. The resulting pellet is stored at -80° C.
(§3) Binding is initiated by the addition of 100 μl of membrane (10-20 μg) containing the human NK-1 or NK-2 receptor in a final volume of 200 μl. After 40 minutes at room temperature, the reaction is stopped by rapid filtration onto Whatman GF/C filters which have been presoaked in 0.3% polyethylenimine. Filters are washed 2 times with 3 ml of 50 mM Tris-HCl (pH7.4).

[2] = target: T2, human neurokinin 2 (NK2) receptor (Homo sapiens, UniProt P21452); assay: Neurokinin receptor binding assay, NK2 ([3H]-Neurokinin A, CHO membranes); conditions: for Ki: racemic compounds except specifically defined enantiomers
T2 construct: expressed in transfected cells; host or cells: Chinese Hamster ovary (CHO) cells
T2 sequence (P21452 1-398): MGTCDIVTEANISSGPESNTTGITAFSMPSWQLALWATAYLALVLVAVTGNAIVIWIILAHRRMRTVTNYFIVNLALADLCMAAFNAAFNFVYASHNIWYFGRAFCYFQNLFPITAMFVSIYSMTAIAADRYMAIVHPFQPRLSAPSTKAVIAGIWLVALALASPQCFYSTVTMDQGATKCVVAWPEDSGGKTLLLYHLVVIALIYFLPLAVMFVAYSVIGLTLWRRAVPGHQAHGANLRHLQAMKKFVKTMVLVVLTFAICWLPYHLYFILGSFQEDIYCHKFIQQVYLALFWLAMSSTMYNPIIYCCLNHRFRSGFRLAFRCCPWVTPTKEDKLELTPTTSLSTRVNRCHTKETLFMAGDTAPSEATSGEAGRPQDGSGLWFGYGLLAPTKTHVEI
Protocol: as §1, §2, §3

NK3 = target: T3, NK3 (Homo sapiens, UniProt P29371); assay: NK3 radioligand receptor binding assay as described in the literature; conditions: racemic compounds except specifically defined enantiomers
T3 sequence (P29371 1-465): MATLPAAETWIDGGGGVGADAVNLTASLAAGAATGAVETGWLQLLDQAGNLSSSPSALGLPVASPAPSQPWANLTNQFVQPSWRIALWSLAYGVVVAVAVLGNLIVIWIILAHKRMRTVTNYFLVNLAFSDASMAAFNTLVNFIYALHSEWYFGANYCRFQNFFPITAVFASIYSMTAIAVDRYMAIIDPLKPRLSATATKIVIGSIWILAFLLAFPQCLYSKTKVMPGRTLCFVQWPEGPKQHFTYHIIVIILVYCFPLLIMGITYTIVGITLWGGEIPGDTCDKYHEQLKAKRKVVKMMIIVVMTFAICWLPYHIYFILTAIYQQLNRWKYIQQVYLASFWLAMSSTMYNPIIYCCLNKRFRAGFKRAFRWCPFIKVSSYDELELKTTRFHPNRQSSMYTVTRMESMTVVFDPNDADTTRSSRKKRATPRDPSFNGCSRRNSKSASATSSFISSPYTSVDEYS

T1 sequence (P25103 whole entry): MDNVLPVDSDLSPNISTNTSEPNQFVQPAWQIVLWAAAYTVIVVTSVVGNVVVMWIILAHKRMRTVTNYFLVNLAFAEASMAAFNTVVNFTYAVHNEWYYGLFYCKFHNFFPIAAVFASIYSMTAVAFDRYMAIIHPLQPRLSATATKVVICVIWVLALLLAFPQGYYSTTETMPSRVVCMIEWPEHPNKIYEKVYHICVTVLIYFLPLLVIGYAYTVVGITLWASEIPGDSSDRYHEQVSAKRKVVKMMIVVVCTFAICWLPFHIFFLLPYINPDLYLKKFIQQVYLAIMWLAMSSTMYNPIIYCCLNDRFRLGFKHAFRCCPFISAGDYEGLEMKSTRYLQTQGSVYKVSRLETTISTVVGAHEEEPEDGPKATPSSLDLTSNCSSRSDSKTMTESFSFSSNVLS

| Ki [1] [nM] | Ki [2] [nM] | inhibition at 1 µM [2] [%] | Ki (NK3) [nM] | inhibition at 1 µM [1] [%] | SMILES |
| --- | --- | --- | --- | --- | --- |
| 117 | 187 | – | – | – | O=C(C1c2ccccc2Oc2ccccc21)N1CCN(C(=O)CNC2CCN(Cc3ccccc3)CC2)C(c2ccc(Cl)c(Cl)c2)C1 (stereo not drawn) |
| 74 | – | 7 | – | – | CN(CC(=O)N1CCN(Cc2cc(C(F)(F)F)cc(C(F)(F)F)c2)CC1c1ccc(Cl)c(Cl)c1)C1CCN(Cc2ccccc2)CC1 (stereo not drawn) |
| – | – | – | 433 | – | O=C(c1cc(C(F)(F)F)cc(C(F)(F)F)c1)N1CCN(C(=O)CNC2CCN(Cc3ccccc3)CC2)C(c2ccc(Cl)c(Cl)c2)C1 (stereo not drawn) |
| 2.5 | 48 | – | – | – | COc1ccc(C2CN(C(=O)c3cc(C(F)(F)F)cc(C(F)(F)F)c3)CCN2C(=O)CNC2CCN(Cc3ccccc3)CC2)cc1 (stereo not drawn) |
| 0.58 | 93 | – | – | – | Cc1cc(C)cc(C(=O)N2CCN(C(=O)C[N+](C)(C)C3CCN(Cc4ccccc4)CC3)C(c3ccc(Cl)c(Cl)c3)C2)c1 (stereo not drawn) |
| 63 | 68 | – | – | – | CC(C)(C)c1cc(C(=O)N2CCN(C(=O)CNC3CCN(Cc4ccccc4)CC3)C(c3ccc(Cl)c(Cl)c3)C2)cc(C(C)(C)C)c1 (stereo not drawn) |
| – | – | 22 | – | 14 | O=C(c1cc(O)cc(O)c1)N1CCN(C(=O)CNC2CCN(Cc3ccccc3)CC2)C(c2ccc(Cl)c(Cl)c2)C1 (stereo not drawn) |
| 93 | 3.4 | – | – | – | O=C(c1ccccc1)N1CCN(C(=O)CNC2CCN(Cc3ccccc3)CC2)C(c2ccc(Cl)c(Cl)c2)C1 (stereo not drawn) |
